Numbered stars: 1 amine (or outer) side, 2 acyl side, 3 side chain; on linkers, the order of the positions; unused ones are H or OH. Bridge positions count the residues as written; N and C are the ends. Square brackets hold non-standard residues; d marks the D form. Side chains are listed from the residue outwards. Peptide text beside a SMILES is read from it. * marks the point of attachment. Trp(1-Me,7-Cl) = Cn1cc(C[C@H](N)C(=O)O)c2cccc(Cl)c21; Ala(2-NH2-4-pyridyl) = Nc1cc(C[C@H](N)C(=O)O)ccn1; dPhe(3-CONH2) = NC(=O)c1cccc(C[C@@H](N)C(=O)O)c1; Piperazinyl(4-CH2COOH) = O=C(O)CN1CCN(*)CC1; Trp(1-Me) = Cn1cc(C[C@H](N)C(=O)O)c2ccccc21; NMemTyr = CN[C@@H](Cc1cccc(O)c1)C(=O)O; NMe3Pal = CN[C@@H](Cc1cccnc1)C(=O)O; NMeF = CN[C@@H](Cc1ccccc1)C(=O)O; hCit = NC(=O)NCCCC[C@H](N)C(=O)O; 4Pal = N[C@@H](Cc1ccncc1)C(=O)O; Gly(cBu) = N[C@H](C(=O)O)C1CCC1; NMeE = CN[C@@H](CCC(=O)O)C(=O)O; Aad = N[C@@H](CCCC(=O)O)C(=O)O; NMeN = CN[C@@H](CC(N)=O)C(=O)O; CO = O=C([*:1])[*:2]; βAla = NCCC(=O)O Where only a bound is given, the exact number is not on record here.

For this test, the target named is T1, Recombinant Human EphA2 Fc Protein (Homo sapiens, UniProt P29317).
T1 construct: purchased Elabscience
Nature of the test: SPR interaction analysis (Biacore T200), kinetics of peptides against EphA2. In kind it is binding. The following applies: Recombinant Human EphA2 Fc Protein captured by Human Antibody Capture kit; single-cycle kinetics; 25° C.; HBS-P+ buffer with 1% DMSO. Summed up: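 KD derived from ka and kd, fitted on baseline-subtracted sensorgrams from single-cycle kinetics of five peptide dilutions. Running buffer: HBS-P+ (pH 7.4) plus 1% DMSO, 25° C, Biacore T200. Recombinant human EphA2-Fc held on an antibody capture surface.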
(In SPR one partner is held on a chip, and binding of the other changes the refractive index at the surface.)
Regarding `C[C@H]1NC(=O)CSC[C@@H](C(N)=O)NC(=O)[C@H](CCCC(N)=O)NC(=O)[C@H]([C@@H](C)O)NC(=O)[C@H](Cc2cn(C)c3ccccc23)NC(=O)[C@H](CCCCNC(=O)N2CCN(CC(=O)O)CC2)NC(=O)[C@H](Cc2cn(C)c3ccccc23)NC(=O)[C@H](Cc2ccccc2)N(C)C(=O)[C@H](CCCC(N)=O)NC(=O)[C@H](C2CCC2)NC(=O)[C@H](CC(N)=O)NC(=O)[C@H](Cc2cccnc2)N(C)C1=O` [PDC_EphA2-00009999, da-Me3Py-N-Cbg-Hgn-MeF-W1Me-KCOpipzaa-W1Me-T-Hgn-C-NH2] ({CH2CO}-[dA][NMe3Pal]N[Gly(cBu)][Aad](NH2)[NMeF][Trp(1-Me)]K([CO-Piperazinyl(4-CH2COOH)])[Trp(1-Me)]T[Aad](NH2)C-NH2; thioether N-12), the equilibrium dissociation constant (Kd) (in general, the free concentration of one partner at which half of the binding sites on the other are occupied at equilibrium, for simple one-to-one binding) was below 0.001 µM.
Turning to `CN1C(=O)[C@H](CCCC(N)=O)NC(=O)[C@H](C2CCC2)NC(=O)[C@H](CC(N)=O)NC(=O)[C@H](Cc2cccc(O)c2)N(C)C(=O)[C@@H](Cc2cccc(C(N)=O)c2)NC(=O)CSC[C@@H](C(N)=O)NC(=O)[C@H](Cc2cn(C)c3ccccc23)NC(=O)[C@H](CCCCNC(=O)N2CCN(CC(=O)O)CC2)NC(=O)[C@H](Cc2cn(C)c3c(Cl)cccc23)NC(=O)[C@@H]1CCC(=O)O` [PDC_EphA2-00026608, df3CON-MeF3H-N-Cbg-Hgn-MeE-W1Me7Cl-KCOpipzaa-W1Me-C-NH2] ({CH2CO}-[dPhe(3-CONH2)][NMemTyr]N[Gly(cBu)][Aad](NH2)[NMeE][Trp(1-Me,7-Cl)]K([CO-Piperazinyl(4-CH2COOH)])[Trp(1-Me)]C-NH2; thioether N-10), the equilibrium dissociation constant (Kd) is below 0.001 µM.
`CC(=O)NCCCC[C@@H](NC(=O)CCNC(=O)[C@@H]1CSCC(=O)N[C@H](C)C(=O)N(C)[C@@H](Cc2ccccc2)C(=O)N[C@@H](CC(N)=O)C(=O)N[C@@H](CC(C)C)C(=O)N[C@@H](CCCC(=O)O)C(=O)N(C)[C@@H](Cc2ccccc2)C(=O)N[C@@H](Cc2cn(C)c3ccccc23)C(=O)N[C@@H](C(C)C)C(=O)N[C@@H](Cc2cn(C)c3ccccc23)C(=O)N[C@@H]([C@@H](C)O)C(=O)N[C@@H](CCC(=O)O)C(=O)N1)C(N)=O` [PDC_EphA2-00008082, da-MeF-N-L-Hgl-MeF-W1Me-V-W1Me-T-E-C-bA-dkAc-NH2] ({CH2CO}-[dA][NMeF]NL[Aad][NMeF][Trp(1-Me)]V[Trp(1-Me)]TEC[βAla][dK](Ac)-NH2; thioether N-12): the dissociation constant Kd was below 0.001 µM.
In the case of `CC(C)[C@@H]1NC(=O)[C@H](Cc2cn(C)c3ccccc23)NC(=O)[C@H](CC(N)=O)N(C)C(=O)[C@H](CCCC(N)=O)NC(=O)[C@H](C2CCC2)NC(=O)[C@H](CC(N)=O)NC(=O)[C@H](Cc2cccnc2)N(C)C(=O)[C@@H](C)NC(=O)CSC[C@@H](C(N)=O)NC(=O)[C@H](CCCC(N)=O)NC(=O)[C@H]([C@@H](C)O)NC(=O)[C@H](Cc2cn(C)c3ccccc23)NC1=O` [PDC_EphA2-00010011, da-Me3Py-N-Cbg-Hgn-MeN-W1Me-V-W1Me-T-Hgn-C-NH2] ({CH2CO}-[dA][NMe3Pal]N[Gly(cBu)][Aad](NH2)[NMeN][Trp(1-Me)]V[Trp(1-Me)]T[Aad](NH2)C-NH2; thioether N-12) it was below 0.001 µM; in that of `CC(C)C[C@@H]1NC(=O)[C@H](Cc2ccncc2)NC(=O)[C@H](Cc2ccccc2)NC(=O)CSC[C@@H](C(=O)NCC(N)=O)NC(=O)[C@H](Cc2cn(C)c3ccccc23)NC(=O)[C@H](Cc2ccccc2)N(C)C(=O)[C@H](Cc2cn(C)c3ccccc23)NC(=O)CNC1=O` [PDC_EphA2-00020295-L092, F-4Py-L-G-W1Me-MeF-W1Me-C-G-NH2] ({CH2CO}-F[4Pal]LG[Trp(1-Me)][NMeF][Trp(1-Me)]CG-NH2; thioether N-8), 0.1 to 0.4 µM.
Regarding `CC(C)C[C@@H]1NC(=O)[C@H](Cc2ccnc(N)c2)NC(=O)[C@H](Cc2ccccc2)NC(=O)CSC[C@@H](C(=O)NCC(N)=O)NC(=O)[C@H](Cc2cn(C)c3ccccc23)NC(=O)[C@H](Cc2ccccc2)N(C)C(=O)[C@H](Cc2cn(C)c3ccccc23)NC(=O)[C@H](CCCCNC(N)=O)NC1=O` [PDC_EphA2-00022601, F-4Py2NH2-L-Hcit-W1Me-MeF-W1Me-C-G-NH2] ({CH2CO}-F[Ala(2-NH2-4-pyridyl)]L[hCit][Trp(1-Me)][NMeF][Trp(1-Me)]CG-NH2; thioether N-8), the equilibrium dissociation constant (Kd) is 0.1 to 0.4 µM.

The values are drawn from patent US20260098061A1, “EPHA2-BINDING PENDING PEPTIDE AND COMPOSITION COMPRISING SAME” (PeptiDream Inc., priority 2022, published 2026).
